Source: paper PMC12475274, “Harnessing indole scaffolds to identify small-molecule IRE1α inhibitors modulating XBP1 mRNA splicing” (Nature Communications, 2025)
“And” between values parts separate entries of the source, which are not always exact repeats. Equal entries are not always repeated. Where two headings read alike, the source gives them in different places.

Tests used:
[1] = test system: IRE1α protein in A549 cells; test: Western blot of IRE1α protein level, A549; type: cell-based, human
Protocol: A549 cells and MDA-MB-231 Cells were harvested and seeded into 6-well plates with a density of 8 × 10^5 cells per well and cultured overnight. […]. Protein concentrations were measured using a BCA protein assay kit (Thermo Scientific, 23227) and all samples were diluted to the same protein concentration. Each sample with 40 μg of total protein was loaded onto a 4–15% MP stain-free gel (Bio-Rad, 4568085) and separated in tris-glycine-SDS running buffer. The proteins were transferred onto a 0.45 μm PVDF membrane (Bio-Rad, 1704274) using the Trans-Blot Turbo Transfer System with the preprogrammed standard SD protocol (up to 1.0 A; 25 V; 30 min). Membranes were blocked with 5% skim milk (Roth, T145.2) in PBST buffer, then incubated with primary antibody IRE1α (Cell Signaling Technology, #3294 s, 1:1000), XBP1s (Cell Signaling Technology, #12782 s, 1:1000) GAPDH (Proteintech, 10494-1-AP, 1:6000) overnight at 4 °C with shaking. After incubation, membranes were washed with PBST and incubated with the Goat Anti-Rabbit (Proteintech, SA00001-2, 1:6000) antibody at room temperature for 1 h. After washing with PBST, the membranes were visualized using Amersham ECL Prime Western Blotting Detection Kit (Cytiva, RPN2232) and imaged with a ChemiDoc MP imaging system (Bio-Rad).

[2] = biological target: T1, dephosphorylated IRE1α (547–977) (Homo sapiens, UniProt O75460); test: FRET-based IRE1α RNase activity assay, dephosphorylated IRE1α; type: biochemical
T1 construct: Human IRE1α kinase and RNase domain (residues 547–977) was subcloned into pLIB plasmid; His tag (with TEV cleavage site) (N, cleaved yes); made in house; host or cells: Sf9 insect cells, baculovirus (Bac-to-Bac)
In short: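 Inhibition came from the linear-phase cleavage rate of 100 nM XBP1-sequence FAM/BHQ1 RNA, monitored at 485/535 nm over one hour and fitted to IC50. Enzyme: 40 nM unphosphorylated IRE1α kinase-RNase domain (547–977), exposed to compound for 30 min at room temperature before substrate, in HEPES pH 7.5 buffer.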

p-IRE1α = biological target: T2, p-IRE1α (Homo sapiens, UniProt O75460); test: Differential scanning fluorimetry (DSF), p-IRE1α; type: binding; conditions: for p-IRE1a ∆Tm: DSF, individual measurements; for p-IRE1a ∆Tm(°C): individual replicate values
T2 construct: Human IRE1α kinase and RNase domain (residues 547–977) was subcloned into pLIB plasmid; His tag (with TEV cleavage site) (N, cleaved yes); made in house; host or cells: Sf9 insect cells, baculovirus (Bac-to-Bac)
Protocol: The DSF assay was performed in PBS buffer containing 2 mM DTT, in a total reaction volume of 20 µl with indicated compounds (final 1% DMSO) and the final concentration of 1 µM IRE1α protein and 5× SYPRO Orange fluorescent dye (5000× in DMSO, Sigma S5692). The melting curve was measured at a temperature range from 25 °C to 95 °C and in increments of 1 °C for 30 s using a Bio-Rad CFX96 Real-Time PCR detection system with the FRET scan mode. The melting temperature (Tm) was obtained by fitting the melting curve to Boltzmann sigmoidal in GraphPad Prism and the thermal shift (∆Tm) was calculated by using the equation: ∆Tm = Tm(compound) -Tm(DMSO).

[3] = FRET assay at 50 μM, source data, 50 µM
[4] = FRET assay, RNase activity, mean (± SEM), read-out: IRE1α IC50
[5] = FRET assay, source data, unit from Fig. 3 / sheet Fig. 2b, read-out: IRE1a IC50, individual replicates (n1-n4)
[6] = IRE1a, IA34 0.000282 μM, Supplementary Fig. 3b, replicate values
[7] = IRE1a, IA34 1.85185 μM, Supplementary Fig. 3b, replicate values

T1 sequence (O75460 547-977): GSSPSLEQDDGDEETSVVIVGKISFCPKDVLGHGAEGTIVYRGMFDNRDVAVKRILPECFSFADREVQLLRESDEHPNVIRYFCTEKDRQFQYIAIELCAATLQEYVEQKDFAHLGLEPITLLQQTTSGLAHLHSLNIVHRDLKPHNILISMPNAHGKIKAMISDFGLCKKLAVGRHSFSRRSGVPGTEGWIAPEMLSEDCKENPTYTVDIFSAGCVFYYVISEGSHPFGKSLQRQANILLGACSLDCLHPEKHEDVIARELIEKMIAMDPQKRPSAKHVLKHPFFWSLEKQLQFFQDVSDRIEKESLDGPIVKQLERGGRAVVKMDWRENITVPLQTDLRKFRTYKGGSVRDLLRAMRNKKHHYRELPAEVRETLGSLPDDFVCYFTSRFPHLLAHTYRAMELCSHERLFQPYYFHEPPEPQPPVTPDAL
T2 sequence (O75460 547-977): as above

CCOC(=O)Nc1cccc2c(Oc3ncccc3-c3ccnc(N[C@H]4CCCNC4)n3)c(C)ccc12 [Compound G1749, reference compound]
effect on IRE1α protein level [1]: did not affect | effect on IRE1α RNase activity in the FRET assay [2]: activating IRE1α activity | activity (fold change) ([2]; IRE1a, 5.55556 μM): 6.184 fold change and 6.333 fold change and 5.999 fold change and 6.267 fold change | activity (fold change) ([2]; IRE1a, 16.6667 μM): 6.104 fold change and 5.222 fold change and 7.238 fold change and 6.279 fold change | activity (fold change) ([2]; IRE1a, 50 μM): 5.173 fold change and 5.3757 fold change and 6.203 fold change and 5.356 fold change

COc1ccc2c(c1)c(CCC(=O)O)c(C)n2C(=O)c1ccc(Cl)cc1 [IA01]
stabilization of p-IRE1α in DSF (p-IRE1α): concentration-dependently stabilized | p-IRE1a ∆Tm (p-IRE1α; compound 25 μM): 0.52 °C and 0.47 °C | p-IRE1a ∆Tm (p-IRE1α; compound 50 μM): 0.91 °C and 1.02 °C | IRE1a inhibition(%), individual measurements ([2]; FRET assay at 10 μM, source data, 10 µM): 86.3319% | inhibition at 10 µM ([2]; FRET assay at 10 μM, source data, read-out: IRE1a inhibition(%), individual measurements): 85.9% | inhibition at 50 µM ([2]; FRET assay at 50 μM, mean (± SEM), read-out: IRE1α inhibition%): 97.1% | IRE1a inhibition(%), individual measurements [2, 3]: 92.8762% and 91.6346% and 94.1417% and 92.7378% and 93.1088% and 89.7986% and 113.165% and 103.517% and 100.196% and 112.293% and 71.6431% and 81.6993% | IC50 [2, 4]: 300 nM | IC50 [2, 5]: 286 nM and 204 nM and 400 nM

COc1ccc2c(c1)c(CCC(=O)O)c(C)n2C(=O)c1ccc2ccccc2c1 [IA34]
p-IRE1a ∆Tm(°C) (p-IRE1α; compound 6.25 μM): 0.04 °C and -0.01 °C | p-IRE1a ∆Tm(°C) (p-IRE1α; compound 12.5 μM): 0 °C and -0.08 °C | p-IRE1a ∆Tm(°C) (p-IRE1α; compound 25 μM): 0.02 °C and 0.03 °C | p-IRE1a ∆Tm(°C) (p-IRE1α; compound 50 μM): 0.03 °C and 0.12 °C | IRE1α IC50 ([2]; FRET assay, RNase activity, mean (± SEM)): IC₅₀ not reached | IC50 [2, 4]: > 20000 nM | inhibition at 0.000282 µM [2, 6]: 11% | inhibition(%) [2, 6]: 17.14% and 20.16% and 15.89% | inhibition(%) ([2]; IRE1a, IA34 0.000847 μM, Supplementary Fig. 3b, replicate values): 11.75% and 10.72% and 4.25% and 16.96% | inhibition(%) ([2]; IRE1a, IA34 0.00254 μM, Supplementary Fig. 3b, replicate values): 11.91% and 15.33% and 6.07% and 5.16% | inhibition(%) ([2]; IRE1a, IA34 0.007621 μM, Supplementary Fig. 3b, replicate values): 4.65% and -4.78% and -13.00% and -9.42% | inhibition(%) ([2]; IRE1a, IA34 0.022862 μM, Supplementary Fig. 3b, replicate values): -15.56% and -32.65% and -11.50% and -23.95% | inhibition(%) ([2]; IRE1a, IA34 0.068587 μM, Supplementary Fig. 3b, replicate values): 0.30% and -2.50% and 3.18% and 1.26% | inhibition(%) ([2]; IRE1a, IA34 0.205761 μM, Supplementary Fig. 3b, replicate values): 4.13% and 5.59% and 2.33% and -2.10% | inhibition(%) ([2]; IRE1a, IA34 0.617284 μM, Supplementary Fig. 3b, replicate values): 17.19% and 19.37% and 7.03% and 9.32% | inhibition at 1.85185 µM [2, 7]: 10.8% | inhibition(%) [2, 7]: 18.23% and 17.28% and 17.87% | inhibition(%) ([2]; IRE1a, IA34 5.55556 μM, Supplementary Fig. 3b, replicate values): 27.30% and 30.30% and 1.63% and 11.62% | inhibition(%) ([2]; IRE1a, IA34 16.6667 μM, Supplementary Fig. 3b, replicate values): 11.08% and 14.65% and 30.15% and 29.94% | inhibition(%) ([2]; IRE1a, IA34 50 μM, Supplementary Fig. 3b, replicate values): -1.98% and 7.19% and 5.53% and 17.33%

COc1ccc2c(c1)c(CCC(=O)O)c(C)n2C(=O)c1ccccc1 [IA64]
p-IRE1a ∆Tm(°C) (p-IRE1α; compound 6.25 μM): 0.67 °C and 0.63 °C | p-IRE1a ∆Tm(°C) (p-IRE1α; compound 12.5 μM): 1.12 °C and 1.05 °C | p-IRE1a ∆Tm(°C) (p-IRE1α; compound 25 μM): 1.46 °C and 1.49 °C | p-IRE1a ∆Tm(°C) (p-IRE1α; compound 50 μM): 2.16 °C and 2.21 °C | IC50 [2, 4]: 30 nM and 34.9 nM | IC50 [2, 5]: 44.1 nM and 36.7 nM and 38.4 nM and 20.4 nM

Cc1c(CCC(=O)O)c2cc(Br)ccc2n1C(=O)c1ccccc1 [IA107]
stabilization of p-IRE1α in DSF (p-IRE1α): stabilized phosphorylated IREα concentration-dependently | p-IRE1a ∆Tm (p-IRE1α; compound 25 μM): 1.94 °C and 2.53 °C and 2.1 °C and 2.61 °C | p-IRE1a ∆Tm (p-IRE1α; compound 50 μM): 3.27 °C and 3.18 °C and 2.63 °C and 3 °C | p-IRE1a ∆Tm (p-IRE1α; compound 100 μM): 3.1 °C and 3.74 °C and 2.72 °C and 2.61 °C | increase in potency (IRE1α) ([2]; FRET IC50, reference compound not named): 20 fold | IRE1a inhibition(%), individual measurements ([2]; FRET assay at 16.6667 μM, source data, 16.6667 µM): 96.2448% and 97.4358% and 96.6561% and 93.7071% and 93.3922% and 93.79% and 97.6814% | inhibition at 16.6667 µM ([2]; FRET assay at 16.6667 μM, source data, read-out: IRE1a inhibition(%), individual measurements): 92.4% | IRE1a inhibition(%), individual measurements [2, 3]: 89.203% and 96.8587% and 95.5081% and 91.4695% and 84.6077% and 86.1159% and 92.8068% | inhibition at 50 µM ([2]; FRET assay at 50 μM, source data, read-out: IRE1a inhibition(%), individual measurements): 91.3% | IC50 [2, 4]: 16 nM and 15.6 nM | IC50 [2, 5]: 15.5 nM and 17 nM and 14.2 nM

Cc1c(CCC(=O)O)c2cc(Cl)ccc2n1C(=O)c1ccccc1 [IA141]
p-IRE1a ∆Tm(°C) (p-IRE1α; compound 1.563 μM): 0.12 °C and -0.00583 °C and 0.32 °C and -0.0158 °C | p-IRE1a ∆Tm(°C) (p-IRE1α; compound 3.125 μM): 0.72 °C and 0.27 °C (2×) and 0.32 °C | p-IRE1a ∆Tm(°C) (p-IRE1α; compound 6.25 μM): 0.99 °C and 0.72 °C and 0.76 °C and 0.85 °C | p-IRE1a ∆Tm(°C) (p-IRE1α; compound 12.5 μM): 1.57 °C and 1.31 °C and 1.36 °C and 1.19 °C | p-IRE1a ∆Tm(°C) (p-IRE1α; compound 25 μM): 2.22 °C and 2.10 °C and 1.74 °C and 2.25 °C | p-IRE1a ∆Tm(°C) (p-IRE1α; compound 50 μM): 2.87 °C and 2.43 °C and 2.53 °C and 2.76 °C | p-IRE1a ∆Tm(°C) (p-IRE1α; compound 100 μM): 3.32 °C and 3.36 °C and 3.61 °C and 3.33 °C | IC50 [2, 4]: 52 nM and 50 nM | IC50 [2, 5]: 61.7 nM and 34.6 nM and 58.2 nM

Cc1ccc2c(c1)c(CCC(=O)O)c(C)n2C(=O)c1ccccc1 [IA147]
p-IRE1a ∆Tm(°C) (p-IRE1α; compound 1.563 μM): 0.22 °C and 0.13 °C and 0.08 °C and 0.11 °C | p-IRE1a ∆Tm(°C) (p-IRE1α; compound 3.125 μM): 0.29 °C (2×) and 0.42 °C and 0.19 °C | p-IRE1a ∆Tm(°C) (p-IRE1α; compound 6.25 μM): 0.58 °C and 0.78 °C and 0.38 °C and 0.50 °C | p-IRE1a ∆Tm(°C) (p-IRE1α; compound 12.5 μM): 0.95 °C and 0.90 °C and 0.84 °C and 1.22 °C | p-IRE1a ∆Tm(°C) (p-IRE1α; compound 25 μM): 1.52 °C and 1.79 °C and 1.41 °C and 1.95 °C | p-IRE1a ∆Tm(°C) (p-IRE1α; compound 50 μM): 2.33 °C and 2.18 °C and 1.98 °C and 2.60 °C | p-IRE1a ∆Tm(°C) (p-IRE1α; compound 100 μM): 3.18 °C and 2.83 °C and 2.92 °C and 3.09 °C | IC50 [2, 4]: 66 nM and 66.4 nM | IC50 [2, 5]: 90.6 nM and 45.5 nM and 63.2 nM

CCOC(=O)CCc1c(C)n(C(=O)c2ccccc2)c2ccc(Br)cc12 [IAPD1]
effect on IRE1α protein level [1]: did not affect | effect on IRE1α RNase activity in the FRET assay [2]: did not show any detectable activity | IC50 [2, 4]: > 50000 nM | effect on IRE1α RNase activity in the FRET assay ([2]; listed as IADP1): did not inhibit the RNase activity

Cc1ccc2c(NS(=O)(=O)c3ccccc3Cl)cccc2c1Oc1ncccc1-c1ccnc(N[C@H]2CCCNC2)n1 [KIRA8]
effect on IRE1α protein level [1]: did not affect | IC50 [2, 4]: 21 nM
